According to ChEMBL document CHEMBL1201862, “PubChem BioAssay data set” (2004):
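48-hour exposure; five concentrations; linearly interpolated endpoints. Here, GI50 denotes the concentration required for 50% inhibition of growth.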 Activity calls are given as the source filed them. No stated cut-off is given here; in the data, active = GI50 up to about 1.1 µM and inactive = higher.

What was measured:
Experiment in all cases: DTP human tumour cell line panel, 48 h
ACHN = test system: ACHN
A549 = test system: A549
OVCAR-3 = test system: OVCAR-3
COLO 205 = test system: COLO 205
OVCAR-4 = test system: OVCAR-4
SK-MEL-28 = test system: SK-MEL-28
HCT-116 = test system: HCT-116
SK-OV-3 = test system: SK-OV-3
UO-31 = test system: UO-31
HOP-62 = test system: HOP-62
DU-145 = test system: DU-145
PC-3 = test system: PC-3
SNB-75 = test system: SNB-75
IGROV-1 = test system: IGROV-1
UACC-257 = test system: UACC-257
SK-MEL-2 = test system: SK-MEL-2
HT-29 = test system: HT-29
MOLT-4 = test system: MOLT-4
U-251 = test system: U-251
A498 = test system: A498

Measured: GI50

COC(=O)c1ccc(Oc2nc3ccccc3nc2-c2cccs2)cc1
inactive: ACHN 71.3 µM | A549 26.1 µM | OVCAR-3 > 100 µM | COLO 205 > 100 µM | OVCAR-4 > 100 µM | SK-MEL-28 > 100 µM | HCT-116 41.3 µM | SK-OV-3 35.5 µM | UO-31 > 100 µM | HOP-62 11.9 µM | DU-145 > 100 µM | PC-3 44.9 µM | SNB-75 7.83 µM | IGROV-1 39.3 µM | UACC-257 > 100 µM | SK-MEL-2 > 100 µM | HT-29 > 100 µM | MOLT-4 > 100 µM

COc1ccc(-c2nc(N(C)C)c3ccccc3n2)cc1
inactive: ACHN 7.64 µM | A549 6.1 µM | U-251 20.5 µM | COLO 205 10.1 µM | OVCAR-4 32.6 µM | SK-MEL-28 14.9 µM | HCT-116 4.57 µM | SK-OV-3 15.8 µM | UO-31 3.36 µM | HOP-62 16.6 µM | PC-3 24 µM | SNB-75 13.5 µM | IGROV-1 9.55 µM | UACC-257 16.4 µM | SK-MEL-2 20.5 µM | HT-29 5.51 µM | MOLT-4 3.91 µM

O=C1C(Cl)C2(CC(/C=C/c3ccccc3O)=NN2c2cccc(S(=O)(=O)O)c2)N1c1nc2ccccc2s1 (stereo unspecified)
inactive: ACHN 20.2 µM | A498 20.9 µM | A549 23.7 µM | U-251 16.7 µM | COLO 205 18.9 µM | OVCAR-4 13.4 µM | SK-MEL-28 24.2 µM | HCT-116 15.4 µM | UO-31 13.1 µM | PC-3 24.8 µM | SNB-75 38.8 µM | IGROV-1 14.9 µM | UACC-257 16.1 µM | SK-MEL-2 16.8 µM | HT-29 18.6 µM | MOLT-4 17.1 µM

C=C(C)C#CC(O)(C(=O)OC1CCN(C)CC1)C(C)C (stereo unspecified)
inactive: ACHN > 100 µM | A549 > 100 µM | OVCAR-3 > 100 µM | U-251 > 100 µM | COLO 205 > 100 µM | SK-MEL-28 > 100 µM | HCT-116 > 100 µM | SK-OV-3 > 100 µM | UO-31 > 100 µM | HOP-62 > 100 µM | DU-145 > 100 µM | PC-3 > 100 µM | SNB-75 > 100 µM | IGROV-1 > 100 µM | UACC-257 > 100 µM | HT-29 > 100 µM | MOLT-4 > 100 µM

CCN(C(=O)N[C@@H](CC(C)C)C(=O)NCC(=O)OC)c1ccccc1
inactive: ACHN > 100 µM | A549 > 100 µM | OVCAR-3 > 100 µM | U-251 > 100 µM | COLO 205 > 100 µM | OVCAR-4 > 100 µM | SK-MEL-28 38.3 µM | HCT-116 > 100 µM | SK-OV-3 > 100 µM | UO-31 > 100 µM | HOP-62 > 100 µM | DU-145 > 100 µM | PC-3 > 100 µM | SNB-75 72.9 µM | IGROV-1 > 100 µM | UACC-257 25.9 µM | SK-MEL-2 61.4 µM | HT-29 > 100 µM | MOLT-4 > 100 µM

O=C1CC[C@@]23CC(=O)O[C@@H]2CCCC3C1 (stereo partly specified)
inactive: ACHN > 100 µM | A549 > 100 µM | U-251 > 100 µM | COLO 205 > 100 µM | OVCAR-4 > 100 µM | SK-MEL-28 > 100 µM | HCT-116 > 100 µM | SK-OV-3 > 100 µM | UO-31 > 100 µM | HOP-62 > 100 µM | DU-145 > 100 µM | PC-3 > 100 µM | SNB-75 > 100 µM | IGROV-1 > 100 µM | UACC-257 > 100 µM | SK-MEL-2 > 100 µM | HT-29 > 100 µM | MOLT-4 > 100 µM

Cc1ccc(S(=O)(=O)Nn2c(O)c(C#N)c(-c3ccc(Cl)cc3)c(C#N)c2=O)cc1
inactive: ACHN > 100 µM | A498 > 100 µM | A549 > 100 µM | U-251 > 100 µM | COLO 205 > 100 µM | OVCAR-4 > 100 µM | SK-MEL-28 > 100 µM | HCT-116 > 100 µM | SK-OV-3 > 100 µM | HOP-62 > 100 µM | PC-3 > 100 µM | SNB-75 > 100 µM | IGROV-1 > 100 µM | UACC-257 > 100 µM | SK-MEL-2 > 100 µM | HT-29 > 100 µM | MOLT-4 > 100 µM

Oc1cccc(-c2cc(=S)ss2)c1
inactive: ACHN 15.7 µM | A549 18.5 µM | U-251 14.8 µM | COLO 205 18.4 µM | OVCAR-4 18.6 µM | SK-MEL-28 19.7 µM | HCT-116 17.9 µM | SK-OV-3 20 µM | UO-31 14.3 µM | HOP-62 17.6 µM | PC-3 14.4 µM | IGROV-1 14.4 µM | UACC-257 14.9 µM | SK-MEL-2 15.6 µM | HT-29 24.7 µM | MOLT-4 3.22 µM

CN(C)Cc1cc(C(=O)/C=C/c2ccccc2)cc(CN(C)C)c1O
inactive: ACHN 15.8 µM | A498 21.8 µM | A549 23.4 µM | OVCAR-3 18.7 µM | U-251 35.3 µM | COLO 205 17.8 µM | OVCAR-4 20.4 µM | SK-MEL-28 20.6 µM | HCT-116 19.7 µM | UO-31 17.5 µM | HOP-62 32.4 µM | DU-145 33 µM | PC-3 12.6 µM | SNB-75 24.9 µM | IGROV-1 31.9 µM | UACC-257 13.3 µM | HT-29 16.9 µM | MOLT-4 16.8 µM

CCOC(=O)n1[nH]c(=O)n(-c2ccccc2)c1=O
inactive: ACHN > 100 µM | A549 > 100 µM | OVCAR-3 > 100 µM | U-251 > 100 µM | COLO 205 > 100 µM | OVCAR-4 > 100 µM | SK-MEL-28 > 100 µM | HCT-116 > 100 µM | SK-OV-3 > 100 µM | UO-31 > 100 µM | HOP-62 > 100 µM | DU-145 > 100 µM | PC-3 > 100 µM | SNB-75 > 100 µM | IGROV-1 > 100 µM | UACC-257 > 100 µM | SK-MEL-2 > 100 µM | HT-29 > 100 µM | MOLT-4 > 100 µM

O=C1CCCCCCCCCCC(=O)N2CCOCCOCCN1Cc1cccc(n1)C2
inactive: ACHN > 100 µM | A498 > 100 µM | A549 > 100 µM | OVCAR-3 44.5 µM | U-251 > 100 µM | COLO 205 > 100 µM | OVCAR-4 > 100 µM | SK-MEL-28 > 100 µM | HCT-116 > 100 µM | SK-OV-3 > 100 µM | UO-31 > 100 µM | HOP-62 > 100 µM | SNB-75 56 µM | IGROV-1 > 100 µM | UACC-257 > 100 µM | SK-MEL-2 > 100 µM | HT-29 > 100 µM | MOLT-4 39.6 µM

CC(=O)N1CCN(CCCCN2c3ccccc3Sc3cc(N=[N+]=[N-])ccc32)CC1
inactive: ACHN 14.9 µM | A549 16.1 µM | OVCAR-3 12.8 µM | U-251 14.4 µM | COLO 205 14.2 µM | SK-MEL-28 18.1 µM | HCT-116 13.8 µM | UO-31 11.3 µM | HOP-62 14.3 µM | DU-145 18.1 µM | PC-3 7 µM | SNB-75 13 µM | IGROV-1 15.2 µM | UACC-257 24.5 µM | HT-29 13.6 µM | MOLT-4 8.47 µM

OC12c3ccccc3C3CCC4(OCCO4)C3C1c1ccccc12 (stereo unspecified)
inactive: ACHN > 100 µM | A498 52.1 µM | A549 > 100 µM | OVCAR-3 > 100 µM | U-251 > 100 µM | COLO 205 > 100 µM | OVCAR-4 > 100 µM | SK-MEL-28 > 100 µM | HCT-116 > 100 µM | SK-OV-3 > 100 µM | UO-31 > 100 µM | HOP-62 > 100 µM | SNB-75 39.6 µM | IGROV-1 61.8 µM | UACC-257 71.9 µM | SK-MEL-2 > 100 µM | HT-29 94.2 µM | MOLT-4 48.6 µM

CCOC(=O)C(C(=S)Nc1ccccc1)c1nn2c(=O)cc(C)nc2s1 (stereo unspecified)
inactive: ACHN 20.5 µM | A549 37.4 µM | OVCAR-3 24.5 µM | U-251 26.7 µM | COLO 205 20.1 µM | OVCAR-4 30.8 µM | SK-MEL-28 21.1 µM | HCT-116 20.8 µM | SK-OV-3 23.3 µM | UO-31 22.2 µM | HOP-62 65 µM | DU-145 36.3 µM | PC-3 24.8 µM | SNB-75 16.9 µM | IGROV-1 36.7 µM | UACC-257 22.7 µM | SK-MEL-2 36.2 µM | HT-29 19.3 µM | MOLT-4 25 µM

O=C(O)C1=C(C(=O)O)Oc2ccccc2O1
inactive: ACHN > 100 µM | A498 > 100 µM | A549 > 100 µM | OVCAR-3 > 100 µM | U-251 > 100 µM | COLO 205 > 100 µM | OVCAR-4 > 100 µM | SK-MEL-28 > 100 µM | HCT-116 > 100 µM | SK-OV-3 > 100 µM | UO-31 > 100 µM | HOP-62 > 100 µM | SNB-75 > 100 µM | IGROV-1 > 100 µM | UACC-257 > 100 µM | SK-MEL-2 > 100 µM | HT-29 > 100 µM | MOLT-4 > 100 µM

N#Cc1ccc(C(O)C(F)(F)c2nc3ccccc3o2)cc1 (stereo unspecified)
inactive: ACHN 83.9 µM | U-251 > 100 µM | COLO 205 > 100 µM | OVCAR-4 95.5 µM | SK-MEL-28 > 100 µM | HCT-116 92.3 µM | SK-OV-3 > 100 µM | UO-31 30.3 µM | HOP-62 > 100 µM | DU-145 35.7 µM | PC-3 33.1 µM | SNB-75 > 100 µM | IGROV-1 95.5 µM | UACC-257 99.8 µM | SK-MEL-2 > 100 µM | HT-29 81.3 µM | MOLT-4 29.2 µM
